Key:
cereblon (NanoLuc-CRBN) = molecular target: T1, cereblon (NanoLuc-CRBN) (Homo sapiens, UniProt Q96SW2); assay: NanoBRET CRBN Cellular Target Engagement Assay; type: binding; settings: compound tested at 10 μM, HEK293T cells transfected with NanoLuc-CRBN, 2 hr incubation; for remaining activity at 10 µM: lower = higher affinity, read-out: % tracer bound At the end of assay; for inhibition at 10 µM: read-out: % tracer removed From CBLN
T1 construct: host or cells: HEK293T
From the text: The following example measures the extent to which a test compound of this invention binds to cereblon. In this example, a commercially available cereblon binding test kit (Promega Corporation, Madison, Wis., USA) was used but adapted to a 384 well format.
The kit comprises a tracer that binds to cereblon to form a tracer-cereblon complex. This complex is reversible. Upon addition of the test compound, competition between the tracer and the test compound for the binding site(s) on cereblon occurs. The extent of tracer release from cereblon correlates to the affinity of test compound to bind to cereblon. The higher the affinity, the more tracer is released from cereblon.
The assay is a homogenous cell-based assay that used bioluminescence resonance energy transfer (BRET) to measure cereblon target compound binding which causes loss of BRET. Lower BRET values correlate to higher loss of tracer bound to cereblon and, accordingly, higher the levels of target compound binding to cereblon.
The specifics of the assay include HEK293T cells were transfected with a NanoLuc-CRBN expression plasmid using Fugene as described. Approximately 24 hr later, transfected cells were washed with 1× Phosphate Buffered Saline (PBS) and harvested using trypsin. Cells were resuspended in Opti-MEM (available from Thermo Fisher Scientific) at a concentration of 2×10^5 cells/mL. A ratio of 1 part 100× Tracer to 4 parts NanoBRET Tracer Dilution Buffer was used to make a 20× Tracer stock. Next, 40 μl cells per well containing 1× tracer was dispensed into 384 well white tissue culture treated plates. Compounds were then dispensed using a D330e Digital Dispenser (Tecan Trading AG) and plates were allowed to incubate for 2 hr at 37° C., 5% CO2. Immediately prior to BRET measurements, a 3× Complete NanoBret Nano-Glo Substrate stock in Opti-MEM was prepared and 20 μl per well of substrate was subsequently added to the assay plates. Following a 2-3 minute incubation at room temperature, donor (450 nm) and acceptor (610 nm) emission values were read on a CLARIOStar multimode plate reader (BMG) in luminescence mode. Data were converted to milliBRET units by dividing acceptor emission values by donor emission and multiplying by 1000. […]

IKZF1 (Ikaros) = molecular target: T2, IKZF1 (Ikaros) (Homo sapiens, UniProt Q13422+Q96SW2); assay: Stable cell line fluorescent reporter degradation assay, IKZF1; type: cell-based; settings: HEK 293T IKZF1-mNeonGreen reporter cells, 24 hour incubation, calculated visually from the curves; for Dmax at 10 µM: 10 micromolar
T2 construct: mScarlet (C, cleaved yes); expressed in transfected cells
T2 sequence (Q13422 whole entry): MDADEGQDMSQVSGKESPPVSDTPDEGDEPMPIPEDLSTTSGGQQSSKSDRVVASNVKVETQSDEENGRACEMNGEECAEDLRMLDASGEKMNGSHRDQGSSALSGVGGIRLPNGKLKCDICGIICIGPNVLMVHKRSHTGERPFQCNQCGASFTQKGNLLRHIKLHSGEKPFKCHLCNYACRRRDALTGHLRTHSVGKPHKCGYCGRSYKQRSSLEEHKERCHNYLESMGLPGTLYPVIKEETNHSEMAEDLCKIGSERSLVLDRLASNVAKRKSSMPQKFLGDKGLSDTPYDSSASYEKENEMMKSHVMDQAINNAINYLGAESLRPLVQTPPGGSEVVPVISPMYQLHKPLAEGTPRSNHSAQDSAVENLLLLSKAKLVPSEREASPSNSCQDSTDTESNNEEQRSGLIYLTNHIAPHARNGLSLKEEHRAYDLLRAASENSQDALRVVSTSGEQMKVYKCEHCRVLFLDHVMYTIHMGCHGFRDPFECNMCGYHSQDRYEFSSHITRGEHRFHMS
T2 sequence (Q96SW2 whole entry): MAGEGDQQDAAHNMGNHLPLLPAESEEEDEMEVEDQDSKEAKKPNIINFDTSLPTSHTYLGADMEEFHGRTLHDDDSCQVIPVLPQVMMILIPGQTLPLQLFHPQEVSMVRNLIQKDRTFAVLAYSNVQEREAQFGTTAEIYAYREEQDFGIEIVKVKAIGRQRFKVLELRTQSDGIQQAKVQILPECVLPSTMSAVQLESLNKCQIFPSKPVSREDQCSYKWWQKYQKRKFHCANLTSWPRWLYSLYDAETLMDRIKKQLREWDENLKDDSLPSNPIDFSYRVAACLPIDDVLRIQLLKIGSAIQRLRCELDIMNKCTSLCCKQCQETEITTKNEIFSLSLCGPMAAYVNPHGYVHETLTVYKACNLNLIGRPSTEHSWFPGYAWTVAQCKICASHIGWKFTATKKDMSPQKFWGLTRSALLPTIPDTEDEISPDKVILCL
T2 sequence (Q16531 whole entry partner): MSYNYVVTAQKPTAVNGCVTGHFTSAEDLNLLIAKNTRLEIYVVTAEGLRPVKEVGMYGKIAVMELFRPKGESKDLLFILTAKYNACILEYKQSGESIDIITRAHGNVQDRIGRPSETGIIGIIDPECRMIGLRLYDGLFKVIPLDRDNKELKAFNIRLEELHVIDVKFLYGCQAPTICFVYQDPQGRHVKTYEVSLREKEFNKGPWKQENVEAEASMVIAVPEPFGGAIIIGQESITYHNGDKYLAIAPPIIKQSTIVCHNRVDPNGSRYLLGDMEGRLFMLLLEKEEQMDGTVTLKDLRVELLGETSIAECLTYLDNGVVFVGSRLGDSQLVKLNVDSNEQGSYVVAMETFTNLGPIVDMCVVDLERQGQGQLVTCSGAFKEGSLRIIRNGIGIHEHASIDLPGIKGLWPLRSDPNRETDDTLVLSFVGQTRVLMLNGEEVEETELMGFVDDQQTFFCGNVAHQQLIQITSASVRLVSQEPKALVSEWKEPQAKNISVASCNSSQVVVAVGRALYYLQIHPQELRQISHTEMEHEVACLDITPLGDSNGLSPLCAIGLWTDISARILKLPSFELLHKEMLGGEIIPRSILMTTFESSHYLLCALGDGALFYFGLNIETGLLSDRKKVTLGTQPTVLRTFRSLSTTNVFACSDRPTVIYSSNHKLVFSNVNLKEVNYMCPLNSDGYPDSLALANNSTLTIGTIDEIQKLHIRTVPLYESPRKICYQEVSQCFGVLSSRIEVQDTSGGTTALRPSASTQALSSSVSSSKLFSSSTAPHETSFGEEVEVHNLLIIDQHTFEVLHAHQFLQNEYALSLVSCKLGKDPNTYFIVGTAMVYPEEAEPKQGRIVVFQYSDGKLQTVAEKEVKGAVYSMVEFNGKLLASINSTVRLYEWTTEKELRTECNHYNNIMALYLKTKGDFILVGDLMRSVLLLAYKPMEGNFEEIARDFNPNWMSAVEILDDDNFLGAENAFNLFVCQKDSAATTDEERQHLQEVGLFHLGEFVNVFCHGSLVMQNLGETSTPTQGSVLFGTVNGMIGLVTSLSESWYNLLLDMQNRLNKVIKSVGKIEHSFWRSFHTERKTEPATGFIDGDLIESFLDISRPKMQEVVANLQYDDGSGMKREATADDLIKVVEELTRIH
From the text: (§1) Polycistronic plasmids were constructed for the mammalian expression of fluorescent reporter fusions of human transcription factors IKZF1 (Ikaros) and IKZF3 (Aiolos). The respective protein sequences had their C-terminal end joined to a GGGGS linker repeated three times followed by mNeonGreen, P2A sequence, and mScarlet. IKZF1 expression was driven by a CMV promoter while IKZF3 was EF1α promoter driven. The plasmids contained the HygR resistance gene for positive selection of cells with genomic integration of the reporter constructs. The plasmids were transfected using cationic lipid reagents into adherent HEK 293T cells and stable integrants were selected by treatment with 200 ug/mL hygromycin B. Clonal populations were obtained from the population of stable integrants either by limiting dilution or fluorescence activated cell sorting. The clonal stable cell lines were maintained under constant 200 ug/mL hygromycin B selection while being passaged for use in the degradation assays. The fluorescence intensity of the IKZF1/2/3-mNeonGreen (FITC channel) and mScarlet (PE channel) reporters were routinely analyzed by flow cytometry to confirm consistent expression levels between experiments.
(§2) Representative compounds were evaluated for their ability to degrade IKZF1 and IKZF3 in the following assay.
(§3) The IKZF1/IKZF3 degradation assays were carried out by harvesting the HEK 293T reporter cell lines and resuspending the cells in media formulated for reduced background fluorescence. The respective cell lines were seeded at a density of 4,000 cells/well into black-walled 384-well optical grade assay plates pre-coated by the manufacturer with PDL. The cells were incubated overnight to allow for attachment to the assay plate (37° C. with humidified air and 5% CO2 for all incubations). Dilutions of the compounds were prepared in dimethyl sulfoxide (DMSO) from 10 mM compound stock solutions in DMSO. The assay plates were treated with appropriate concentrations of the compounds by dispensing the DMSO dilutions in quadruplicate wells with an upper limit of 0.5% final DMSO.
(§4) After a 24 hour incubation with the compounds, the assay plates were imaged on an ImageXpress Pico microscopy system (cells maintained at 37° C. during imaging) to obtain the fluorescent readouts. The assay plates were imaged in the FITC and TRITC channels to obtain the mNeonGreen fluorescence intensity (reporter degradation data) and mScarlet fluorescence intensity (for cell segmentation), respectively. 293T-IKZF1 and 293T-IKZF3 reporter cell lines were imaged with exposures of 500 milliseconds (ms) for both FITC and TRITC channels. The resulting data was analyzed with Cell Reporter Xpress software using the 2-channel cell scoring analysis with a “percent positive” readout. The TRITC channel was selected for the “nuclei” segmentation with a threshold of 20 while the FITC channel was selected for the “Marker 1” segmentation and a threshold of 100 for the IKZF1 and IKZF3 reporter lines. The minimum segmentation width was set to 6 micrometers and the maximum segmentation width was set to 15 micrometers for all cell lines.
(§5) The percent degradation amounts were calculated visually from the curves generated at a concentration of 10 micromolar.

IKZF3 (Aiolos) = molecular target: T3, IKZF3 (Aiolos) (Homo sapiens, UniProt Q96SW2+Q9UKT9); assay: Stable cell line fluorescent reporter degradation assay, IKZF3; type: cell-based; settings: HEK 293T IKZF3-mNeonGreen reporter cells, 24 hour incubation, calculated visually from the curves; for Dmax at 10 µM: 10 micromolar
T3 construct: mScarlet (C, cleaved yes); expressed in transfected cells
T3 sequence (Q9UKT9 whole entry): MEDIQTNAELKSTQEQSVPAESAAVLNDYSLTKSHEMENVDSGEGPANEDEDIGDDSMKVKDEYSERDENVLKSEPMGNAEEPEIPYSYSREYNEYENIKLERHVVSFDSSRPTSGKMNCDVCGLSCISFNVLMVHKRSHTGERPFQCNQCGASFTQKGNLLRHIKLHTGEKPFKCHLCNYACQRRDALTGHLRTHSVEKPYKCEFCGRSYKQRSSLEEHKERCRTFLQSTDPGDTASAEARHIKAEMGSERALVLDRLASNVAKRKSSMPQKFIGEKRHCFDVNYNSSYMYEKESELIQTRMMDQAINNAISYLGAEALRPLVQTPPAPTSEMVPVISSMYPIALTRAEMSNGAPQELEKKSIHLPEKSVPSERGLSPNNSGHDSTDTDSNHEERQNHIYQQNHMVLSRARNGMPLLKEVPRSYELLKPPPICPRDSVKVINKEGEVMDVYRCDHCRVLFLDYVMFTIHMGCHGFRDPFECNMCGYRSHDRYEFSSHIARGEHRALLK
T3 sequence (Q96SW2 whole entry): as the sequence (Q96SW2 whole entry) above
T3 sequence (Q16531 whole entry partner): as the sequence (Q16531 whole entry partner) above
From the text: as §1, §2, §3, §4, §5

T1 sequence (Q96SW2 whole entry): as the sequence (Q96SW2 whole entry) above

Structure (SMILES)	remaining activity at 10 µM (cereblon (NanoLuc-CRBN)) [%]	inhibition at 10 µM (cereblon (NanoLuc-CRBN)) [%]	also measured
COc1ccc(CNc2cccc3nc(C)n(C4CCC(=O)NC4=O)c(=O)c23)cc1OC (stereo not shown) [Example 12, 3-(5-((3,4-dimethoxy-benzyl)-amino)-2-methyl-4-oxoquinazolin-3(4H)-yl)piperidine-2,6-dione]	0	100	
Cc1nc2cccc(NCc3ccc(C#N)cc3)c2c(=O)n1C1CCC(=O)NC1=O (stereo not shown) [Example 14, 3-(5-((4-cyanobenzyl)-amino)-2-methyl-4-oxoquinazolin-3(4H)-yl)piperidine-2,6-dione]	11.5	88.5	
Cc1nc2cccc(NCc3ccc(C(F)(F)F)cc3)c2c(=O)n1C1CCC(=O)NC1=O (stereo not shown) [Example 15, 3-(5-((4-trifluoromethyl-benzyl)-amino)-2-methyl-4-oxoquinazolin-3(4H)-yl)piperidine-2,6-dione]	23.9	76.1	
COc1cc(CNc2cccc3nc(C)n(C4CCC(=O)NC4=O)c(=O)c23)cc(OC)c1 (stereo not shown) [Example 16, 3-(5-((3,5-dimethoxy-benzyl)-amino)-2-methyl-4-oxoquinazolin-3(4H)-yl)piperidine-2,6-dione]	20.9	79.1	
COc1ccc(CNc2cccc3nc(C)n(C4CCC(=O)NC4=O)c(=O)c23)c(OC)c1 (stereo not shown) [Example 17, 3-(5-((2,4-dimethoxy-benzyl)-amino)-2-methyl-4-oxoquinazolin-3(4H)-yl)piperidine-2,6-dione]	34.8	65.2	
COc1ccc(OC)c(CNc2cccc3nnn(C4CCC(=O)NC4=O)c(=O)c23)c1 (stereo not shown) [Example 19, 3-(5-((2,5-dimethoxybenzyl)amino)-4-oxobenzo[d][1,2,3]triazin-3(4H)-yl)piperidine-2,6-dione]	29.7	71.3	
Cc1nc2cccc(NCc3ccc(CN4CC(N5CCOCC5)C4)cc3F)c2c(=O)n1C1CCC(=O)NC1=O (stereo not shown) [Example 96, 3-(5-((2-fluoro-4-((3-morpholinoazetidin-1-yl)methyl)benzyl)amino)-2-methyl-4-oxoquinazolin-3(4H)-yl)piperidine-2,6-dione]			% Degradation IKZF1 @ 10 micromolar (IKZF1 (Ikaros)): 92.6%; % Degradation IKZF3 @ 10 micromolar (IKZF3 (Aiolos)): 92.6%
Cc1nc2cccc(NCc3ccc(CN4CCOCC4)cc3)c2c(=O)n1C1CCC(=O)NC1=O (stereo not shown) [compound 32, 3-(2-methyl-5-((4-(morpholinomethyl)benzyl)amino)-4-oxoquinazolin-3(4H)-yl)piperidine-2,6-dione]			Dmax at 10 µM (IKZF1 (Ikaros)): 93.8%; Dmax at 10 µM (IKZF3 (Aiolos)): 91.9%
Cc1nc2cccc(NCc3cccc(CN4CCN(c5ccc(C#N)cc5F)CC4)c3)c2c(=O)n1C1CCC(=O)NC1=O (stereo not shown) [compound 33, 4-(4-(3-(((3-(2,6-dioxopiperidin-3-yl)-2-methyl-4-oxo-3,4-dihydroquinazolin-5-yl)amino)methyl)benzyl)piperazin-1-yl)-3-fluorobenzonitrile]			Dmax at 10 µM (IKZF1 (Ikaros)): 95.5%; Dmax at 10 µM (IKZF3 (Aiolos)): 87.4%

Now from value to compound, other results behind:

remaining activity at 10 µM (cereblon (NanoLuc-CRBN)) [%]	inhibition at 10 µM (cereblon (NanoLuc-CRBN)) [%]	Structure (SMILES)	also measured
47.4	52.6	COc1ccccc1CNc1cccc2nc(C)n(C3CCC(=O)NC3=O)c(=O)c12 (stereo not shown) [Example 2, 3-(5-((2-methoxybenzyl)amino)-2-methyl-4-oxoquinazolin-3(4H)-yl)piperidine-2,6-dione]	
27.3	72.7	COc1cccc(CNc2cccc3nc(C)n(C4CCC(=O)NC4=O)c(=O)c23)c1 (stereo not shown) [Example 3, 3-(5-((3-methoxybenzyl)amino)-2-methyl-4-oxoquinazolin-3(4H)-yl)piperidine-2,6-dione]	
26.6	73.4	Cc1nc2cccc(NCc3ccccc3F)c2c(=O)n1C1CCC(=O)NC1=O (stereo not shown) [Example 6, 3-(5-((2-fluorobenzyl)amino)-2-methyl-4-oxoquinazolin-3(4H)-yl)piperidine-2,6-dione]	
47.7	52.3	Cc1ccc(CNc2cccc3nc(C)n(C4CCC(=O)NC4=O)c(=O)c23)cc1 (stereo not shown) [Example 8, 3-(2-methyl-5-((4-methylbenzyl)amino)-4-oxoquinazolin-3(4H)-yl)piperidine-2,6-dione]	
30.2	69.8	Cc1nc2cccc(NCc3ccccc3Cl)c2c(=O)n1C1CCC(=O)NC1=O (stereo not shown) [Example 9, 3-(5-((2-chlorobenzyl)-amino)-2-methyl-4-oxoquinazolin-3(4H)-yl)piperidine-2,6-dione]	
20.2	79.8	Cc1nc2cccc(NCc3cccc(Cl)c3)c2c(=O)n1C1CCC(=O)NC1=O (stereo not shown) [Example 10, 3-(5-((3-chlorobenzyl)-amino)-2-methyl-4-oxoquinazolin-3(4H)-yl)piperidine-2,6-dione]	
30.2	69.8	Cc1ccccc1CNc1cccc2nc(C)n(C3CCC(=O)NC3=O)c(=O)c12 (stereo not shown) [Example 11, 3-(5-((2-methylbenzyl)-amino)-2-methyl-4-oxoquinazolin-3(4H)-yl)piperidine-2,6-dione]	
16	84	Cc1nc2cccc(NCc3ccccc3C#N)c2c(=O)n1C1CCC(=O)NC1=O (stereo not shown) [Example 13, 3-(5-((2-cyanobenzyl)-amino)-2-methyl-4-oxoquinazolin-3(4H)-yl)piperidine-2,6-dione]	
21.3	78.7	Cc1nc2cccc(NCc3c(Cl)cccc3Cl)c2c(=O)n1C1CCC(=O)NC1=O (stereo not shown) [Example 18, 3-(5-((2,6-dichlorobenzyl)-amino)-2-methyl-4-oxoquinazolin-3(4H)-yl)piperidine-2,6-dione]	
12.1	87.9	Cc1nc2cccc(NCc3cc(Cl)ccc3Cl)c2c(=O)n1C1CCC(=O)NC1=O (stereo not shown) [Example 20, 3-(5-((2,5-dichlorobenzyl)amino)-2-methyl-4-oxoquinazolin-3(4H)-yl)piperidine-2,6-dione]	
9.9	90.1	Cc1nc2cccc(NCc3ccc(CO)cc3)c2c(=O)n1C1CCC(=O)NC1=O (stereo not shown) [Example 21, 3-(5-((4-(hydroxymethyl)benzyl)amino)-2-methyl-4-oxoquinazolin-3(4H)-yl)piperidine-2,6-dione]	

— patent US11807620B2, “Quinazolinone compounds and related compounds” (PLEXIUM, INC., priority 2020, dated 2023)
